Measured values from patent publication US6403561B1, “Tripeptidylpeptidase inhibitors” (Institut National de la Sante et de la Recherche Medicale …, priority 1998, dated 2002).
Where a name gives a salt, the structure may show the parent alone. Where a SMILES comes first, the peptide text is derived from it. [ ]: non-standard residue; d: D form. The star is where a group is joined. Oic = O=C(O)[C@@H]1C[C@@H]2CCCC[C@@H]2N1; Abu = CC[C@H](N)C(=O)O; NHBu = CCCCN*; NHPr = CCCN*

Assays:
[1] = target: membrane-bound tripeptidylpeptidase II (Rattus norvegicus, UniProt Q64560); assay: Measurement of the activity of membrane-bound tripeptidylpeptidase (release of Amc from A-AP-Amc, fluorimetry); settings: apparent dissociation constant calculated from the 50% inhibitory concentration and the KM of the substrate (23 μM), rat brain membranes, 50 μM A-AP-Amc
Method: Membranes from rat brain were obtained by centrifugation (200,000×g min) of a homogenate prepared in 10 volumes of 50 mM potassium phosphate buffer, pH 7.4.
After washing thoroughly, the centrifugation pellet is taken up in the buffer containing 10% glycerol and 0.1% Brij 35 in order to obtain a concentration of 25 mg of proteins/ml.
The release of Amc is evaluated by fluorimetry.

[2] = Anorexigenic (pro-satiety) activity: spontaneous taking of solid food; assay type: in vivo; settings: mice, 10 mg/kg intravenously, 30 to 90 minutes after free access to food, after overnight fasting
Method: In mice, at a dose of 10 mg/kg (intravenously), this compound decreases the spontaneous taking of solid food (“UAR” tablet) by 45%, measured over a period of 30 to 90 minutes after free access to this food (period preceded by fasting overnight and oral administration of 0.2 ml of a semi-liquid meal).

endogenous CCK-8 = assay: Protection of endogenous CCK-8 released from slices of depolarized rat cerebral cortex (radioimmunoassay); assay type: cell-based; settings: concentration of 1 μM
Method: At a concentration of 1 μM, it multiplies the recovery of released CCK-8 4-fold (measured by radioimmunoassay).

liver TPP II = target: T1, liver TPP II (Mus musculus, UniProt Q64514); assay: Inhibitory activity of TPP II ex vivo after administration to a rodent; assay type: in vivo; settings: mice, 90 minutes after oral administration of 10 mg/kg
T1 construct: measuring the residual catalytic activity on membranes from brain or from a peripheral organ; from tissue; host or cells: mouse liver (membranes), ex vivo after oral dosing
Method: This test is completed by an evaluation of the inhibitory activity of TPP II “ex vivo”, which consists in administering a compound according to the invention to a rodent and in measuring the residual catalytic activity on membranes from brain or from a peripheral organ.
For example, the activity of liver TPP II measured in mice 90 minutes after oral administration of 10 mg/kg of the compound of Example 9 is about 90-100% inhibited.

membrane-bound tripeptidylpeptidase II, sequence (Q64560 whole entry): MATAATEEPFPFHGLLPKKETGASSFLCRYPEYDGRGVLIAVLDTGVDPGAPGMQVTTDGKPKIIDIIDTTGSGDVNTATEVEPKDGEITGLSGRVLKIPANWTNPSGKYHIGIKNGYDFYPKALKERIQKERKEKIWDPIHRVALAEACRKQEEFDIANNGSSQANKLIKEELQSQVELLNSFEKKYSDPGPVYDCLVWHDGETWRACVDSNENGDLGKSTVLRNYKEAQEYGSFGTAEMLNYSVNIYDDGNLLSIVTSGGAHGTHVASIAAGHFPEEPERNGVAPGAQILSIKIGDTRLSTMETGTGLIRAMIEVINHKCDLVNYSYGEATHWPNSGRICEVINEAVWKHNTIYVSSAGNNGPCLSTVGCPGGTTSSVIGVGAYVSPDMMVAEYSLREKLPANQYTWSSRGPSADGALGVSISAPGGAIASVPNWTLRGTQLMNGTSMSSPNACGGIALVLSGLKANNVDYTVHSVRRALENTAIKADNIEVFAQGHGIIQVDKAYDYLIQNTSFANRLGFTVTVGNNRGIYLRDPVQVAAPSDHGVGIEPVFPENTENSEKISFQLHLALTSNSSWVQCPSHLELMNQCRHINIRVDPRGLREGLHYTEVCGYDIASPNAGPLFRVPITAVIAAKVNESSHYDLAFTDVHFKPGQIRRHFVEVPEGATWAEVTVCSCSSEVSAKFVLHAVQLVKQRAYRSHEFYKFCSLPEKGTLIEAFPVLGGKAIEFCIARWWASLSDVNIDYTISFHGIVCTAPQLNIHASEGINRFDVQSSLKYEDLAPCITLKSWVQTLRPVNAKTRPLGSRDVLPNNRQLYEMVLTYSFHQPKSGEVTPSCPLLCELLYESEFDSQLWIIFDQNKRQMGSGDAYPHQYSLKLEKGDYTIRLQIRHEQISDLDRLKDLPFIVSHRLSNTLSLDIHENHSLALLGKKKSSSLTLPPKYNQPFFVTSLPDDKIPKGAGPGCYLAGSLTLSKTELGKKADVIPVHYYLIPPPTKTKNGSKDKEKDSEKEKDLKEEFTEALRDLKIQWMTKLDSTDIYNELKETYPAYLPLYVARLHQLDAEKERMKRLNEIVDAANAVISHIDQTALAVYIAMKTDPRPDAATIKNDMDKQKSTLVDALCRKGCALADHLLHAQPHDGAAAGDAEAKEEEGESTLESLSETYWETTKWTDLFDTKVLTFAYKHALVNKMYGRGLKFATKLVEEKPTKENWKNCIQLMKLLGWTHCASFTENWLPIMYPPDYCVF
T1 sequence (Q64514 whole entry): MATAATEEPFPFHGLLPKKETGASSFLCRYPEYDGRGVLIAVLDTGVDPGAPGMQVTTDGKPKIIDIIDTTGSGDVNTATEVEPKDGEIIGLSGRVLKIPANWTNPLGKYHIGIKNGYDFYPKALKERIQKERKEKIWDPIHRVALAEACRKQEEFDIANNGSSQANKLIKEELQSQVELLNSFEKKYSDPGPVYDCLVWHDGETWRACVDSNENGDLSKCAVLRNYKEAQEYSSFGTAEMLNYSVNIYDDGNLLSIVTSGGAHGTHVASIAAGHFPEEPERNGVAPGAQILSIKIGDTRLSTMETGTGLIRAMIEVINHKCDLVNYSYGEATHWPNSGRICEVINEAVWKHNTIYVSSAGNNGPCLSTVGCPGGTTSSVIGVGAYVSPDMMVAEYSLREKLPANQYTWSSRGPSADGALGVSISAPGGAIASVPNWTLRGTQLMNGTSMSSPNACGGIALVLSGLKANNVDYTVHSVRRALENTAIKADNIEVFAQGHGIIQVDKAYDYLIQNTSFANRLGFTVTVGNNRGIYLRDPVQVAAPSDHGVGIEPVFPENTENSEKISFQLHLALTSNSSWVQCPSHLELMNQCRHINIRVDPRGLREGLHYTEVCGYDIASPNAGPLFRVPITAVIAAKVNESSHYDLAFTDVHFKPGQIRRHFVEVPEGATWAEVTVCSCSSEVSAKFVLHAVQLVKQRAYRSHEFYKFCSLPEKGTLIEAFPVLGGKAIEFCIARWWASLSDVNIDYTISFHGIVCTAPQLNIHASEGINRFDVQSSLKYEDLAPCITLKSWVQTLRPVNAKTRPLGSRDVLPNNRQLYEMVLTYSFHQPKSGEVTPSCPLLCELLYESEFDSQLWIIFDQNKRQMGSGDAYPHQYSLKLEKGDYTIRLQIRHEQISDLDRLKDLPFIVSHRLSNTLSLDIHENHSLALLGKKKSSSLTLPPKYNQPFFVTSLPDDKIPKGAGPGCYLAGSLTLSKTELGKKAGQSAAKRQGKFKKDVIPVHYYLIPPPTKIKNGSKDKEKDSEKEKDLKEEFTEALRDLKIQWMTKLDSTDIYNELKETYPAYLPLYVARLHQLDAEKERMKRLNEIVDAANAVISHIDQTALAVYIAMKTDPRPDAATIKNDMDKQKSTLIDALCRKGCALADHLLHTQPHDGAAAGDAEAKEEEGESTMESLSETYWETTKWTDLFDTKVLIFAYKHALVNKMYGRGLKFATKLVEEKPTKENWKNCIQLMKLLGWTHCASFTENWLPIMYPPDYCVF

SMILES	melting point [°C]	also measured
CCCCNC(=O)[C@@H]1C[C@@H]2CCCC[C@@H]2N1C(=O)[C@@H](N)CC [Example 22, 1-(2(S)-aminobutyryl)-2(S)-[(3aS,7aS)-perhydro]indolinecarboxylic Acid N-butylamide] (H-[Abu]-[Oic]-NHBu)		Ki ([1]; Ki): 560 nM; decrease of the spontaneous taking of solid food [2]: 45%; recovery of released CCK-8 (endogenous CCK-8): 4 fold
CCCCNC(=O)[C@@H]1Cc2cc(OC)ccc2N1C(=O)[C@H](C)N.O=C(O)C(=O)O [Example 26, 1-(L-alanyl)-5-methoxyindoline-2(S)-carboxylic Butylamide Oxalate]	141 to 143	Ki ([1]; Ki): 7.5 nM
CC(C)[C@H](NC(=O)[C@@H]1CCCN1C(=O)[C@H](C)N)B1OC2CC3CC(C3(C)C)C2(C)O1 (stereo partly drawn) [Example 9, L-alanyl-L-prolyl-L-borovaline pinanediol ester]		inhibition of the activity of liver TPP II (liver TPP II): 90-100%; Ki [1]: 0.3 nM
CCCCNC(=O)[C@@H]1Cc2c(OCC)cccc2N1C(=O)[C@@H](N)CC.O=C(O)C(=O)O [Example 31, 1-(2(S)-aminobutyryl)-4-ethoxyindoline-2(S)-carboxylic Acid Butylamide Oxalate]	144.7 to 146.2	Ki ([1]; Ki): 29 nM
CCCCNC(=O)[C@@H]1CCCN1C(=O)[C@@H](N)CC (as salt: oxalate) [Example 4, 1-(2(S)-amino-butyryl)-L-proline n-butylamide] (H-[Abu]-Pro-NHBu)	165 to 167	
CCCCNC(=O)C1N(C(=O)[C@@H](N)CC)c2ccccc2C1(C)C.O=C(O)C(=O)O (mixture of isomers) [Example 28, 1-(2(S)-aminobutyryl)-3,3-dimethylindoline-2(R/S)-carboxylic Acid Butylamide Oxalate]	127 to 133	
CCCCCNC(=O)[C@@H]1CCCN1C(=O)[C@@H](N)CC (as salt: oxalate) [Example 3, 1-(2(S)-aminobutyryl)-L-proline n-pentylamide]	140 to 141	
CCCCNC(=O)C1Cc2cc(O)ccc2N1C(=O)[C@@H](N)CC.O=C(O)C(=O)O (mixture of isomers) [Example 34, 1-2(S)-aminobutyryl-5-hydroxyindoline-2(R/S)-carboxylic Acid Butylamide Oxalate]	129 to 130	
CC[C@H](N)C(=O)N1c2ccccc2C[C@H]1C(=O)NC (as salt: oxalate) (hydrate or solvate) [Example 16, 1-(2(S)-aminobutyryl)-2(S)-indolinecarboxylic Acid methylamide]	138 to 139	
CCCCCCNC(=O)[C@@H]1CCCN1C(=O)[C@@H](N)C(C)C (as salt: oxalate) [Example 1, L-valyl-L-proline n-hexylamide]	146 to 147	
CCCNC(=O)[C@@H]1CCCN1C(=O)[C@@H](N)CC (as salt: trifluoroacetate) [Example 6, 1-(2(S)-amino-butyryl)-L-proline n-propylamide] (H-[Abu]-Pro-NHPr)	46 to 51	
CCCCNC(=O)[C@@H]1Cc2cc(O)ccc2N1C(=O)[C@@H](N)CC.O=C(O)C(=O)O [Example 33, 1-(2(S)-aminobutyryl)-5-hydroxyindoline-2(S)-carboxylic Acid Butylamide Oxalate]	156.5 to 158	Ki ([1]; Ki): 6.6 nM
CCCCNC(=O)[C@@H]1CCCN1C(=O)[C@@H](N)C(C)C (as salt: oxalate) [Example 8, L-valyl-L-proline n-butylamide] (H-Val-Pro-NHBu)	165 to 166	
CCCCNC(=O)[C@@H]1C[C@@H]2CCCC[C@@H]2N1C(=O)[C@@H](N)CC (as salt: salt) [Example 22, 1-(2(S)-aminobutyryl)-2(S)-[(3aS,7aS)-perhydro]indolinecarboxylic Acid N-butylamide] (H-[Abu]-[Oic]-NHBu)	168 to 169	
